The source of these data is ChEMBL document CHEMBL1140432, “Synthesis and biological evaluation of a novel series of "ortho-nitrated" inhibitors of catechol-O-methyltransferase” (J Med Chem, 2005).

Assay [1] addresses T1, Catechol O-methyltransferase (Rattus norvegicus, UniProt P22734).
T1 sequence (P22734 whole entry): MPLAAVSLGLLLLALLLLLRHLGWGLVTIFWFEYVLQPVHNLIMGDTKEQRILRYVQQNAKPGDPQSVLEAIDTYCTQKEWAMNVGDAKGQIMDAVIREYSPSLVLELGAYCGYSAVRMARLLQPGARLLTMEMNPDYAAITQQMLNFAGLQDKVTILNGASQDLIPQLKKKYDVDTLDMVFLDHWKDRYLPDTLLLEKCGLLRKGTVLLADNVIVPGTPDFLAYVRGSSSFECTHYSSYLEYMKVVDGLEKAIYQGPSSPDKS
As to the kind of experiment: Inhibitory activity against COMT in rat liver.

For assay [2], the target named is T1, Catechol O-methyltransferase. The assay is described as follows: Inhibitory activity against COMT in rat brain. It is filed as tissue-based.

A word on the IC50: it is the concentration at which inhibition is half-maximal. Take `O=C(CCCc1ccccc1)c1ccc(O)c(O)c1[N+](=O)[O-]`: the IC50 amounted to 130 nM in assay [1] and 4 nM in assay [2].

Regarding `O=C(CCc1ccccc1)c1ccc(O)c(O)c1[N+](=O)[O-]`, the concentration for half-maximal inhibition (IC50) in assay [1] turned out to be 2000 nM; in assay [2], 4 nM.

Turning to `O=C(Cc1ccccc1)c1ccc(O)c(O)c1[N+](=O)[O-]`, the IC50 in assay [1] was 130 nM; in assay [2], 3 nM.

As to `O=C(CCCCc1ccccc1)c1ccc(O)c(O)c1[N+](=O)[O-]`, the IC50 is 110 nM in assay [1] and 4 nM in assay [2].
